The source of these data is patent US6869964B2, “Heterocyclicsulfonamide hepatitis C virus inhibitors” (Bristol-Myers Squibb Company, priority 2002, dated 2005).

pIC50: −log10 of the molar value. Where two headings read alike, the source gives them in different places.

One test deals with T1, human liver cathepsin B (Homo sapiens, UniProt P07858).
T1 construct: one cysteine protease: human liver cathepsin B; from tissue; host or cells: human liver (from the enzyme's name only)
As to the kind of experiment: Specificity assay, human liver cathepsin B. The format is biochemical. To be noted: 2 hr enzyme-inhibitor pre-incubation; solubility issues at 100 μM. On the procedure: (§1) The specificities of compounds of the present invention were determined against a variety of serine proteases: human sputum elastase (HS), porcine pancreatic elastase (PPE) and human pancreatic chymotrypsin and one cysteine protease: human liver cathepsin B. In all cases a 96-well plate format protocol using colorimetric p-nitroaniline (pNA) substrate specific for each enzyme was used as described previously (CT 2633 application) with some modifications to the serine protease assays.
(§2) Each assay included a 2 hr enzyme-inhibitor pre-incubation at RT followed by addition of substrate and hydrolysis to ˜30% conversion as measured on a Spectramax Pro microplate reader. Compound concentrations varied from 100 to 0.4 μM depending on their potency.
(§3) The percentage of inhibition was calculated using the formula: [1−((UVinh−UVblank)/(UVctl−UVblank))]×100
(§4) A non-linear curve fit was applied to the inhibition-concentration data, and the 50% effective concentration (IC50) was calculated by the use of Excel Xl-fit software.

Test [1] addresses T2, HCV NS3/4A protease complex (H77C strain) (Hepatitis C virus genotype 1a, UniProt P27958, C1454S).
T2 construct: HCV NS3/4A protease complex (amino acids 1027 to 1711); inferred from pET21b vector and Ni-NTA purification; made in house; host or cells: Escherichia coli BL21 (DE3), pET21b
As to the kind of experiment: Recombinant HCV NS3/4A protease complex FRET peptide assay, H77C strain. Type of test: biochemical, HCV genotype 1a. From the text: Recombinant HCV NS3/4A Protease Complex FRET Peptide Assay
The purpose of this in vitro assay was to measure the inhibition of HCV NS3 protease complexes, derived from the BMS, H77C or J4l6S strains, as described below, by compounds of the present invention. This assay provides an indication of how effective compounds of the present invention would be in inhibiting HCV proteolytic activity.
Serum from an HCV-infected patient was obtained from Dr. T. Wright, San Francisco Hospital. An engineered full-length cDNA template of the HCV genome (BMS strain) was constructed from DNA fragments obtained by reverse transcription-PCR (RT-PCR) of serum RNA and using primers selected on the basis of homology between other genotype la strains. From the determination of the entire genome sequence, a genotype la was assigned to the HCV isolate according to the classification of Simmonds et al. (See P Simmonds, K A Rose, S Graham, S W Chan, F McOmish, B C Dow, E A Follett, P L Yap and H Marsden, J. Clin. Microbiol., 31(6), 1493-1503 (1993)). […]

For test [2], the target named is T3, HCV NS3/4A protease complex (BMS strain) (Hepatitis C virus genotype 1a, UniProt P27958, C1454S).
T3 construct: HCV NS3/4A protease complex (amino acids 1027 to 1711); inferred from pET21b vector and Ni-NTA purification; made in house; host or cells: Escherichia coli BL21 (DE3), pET21b
T3 sequence (P27958 1027-1657 C1454S): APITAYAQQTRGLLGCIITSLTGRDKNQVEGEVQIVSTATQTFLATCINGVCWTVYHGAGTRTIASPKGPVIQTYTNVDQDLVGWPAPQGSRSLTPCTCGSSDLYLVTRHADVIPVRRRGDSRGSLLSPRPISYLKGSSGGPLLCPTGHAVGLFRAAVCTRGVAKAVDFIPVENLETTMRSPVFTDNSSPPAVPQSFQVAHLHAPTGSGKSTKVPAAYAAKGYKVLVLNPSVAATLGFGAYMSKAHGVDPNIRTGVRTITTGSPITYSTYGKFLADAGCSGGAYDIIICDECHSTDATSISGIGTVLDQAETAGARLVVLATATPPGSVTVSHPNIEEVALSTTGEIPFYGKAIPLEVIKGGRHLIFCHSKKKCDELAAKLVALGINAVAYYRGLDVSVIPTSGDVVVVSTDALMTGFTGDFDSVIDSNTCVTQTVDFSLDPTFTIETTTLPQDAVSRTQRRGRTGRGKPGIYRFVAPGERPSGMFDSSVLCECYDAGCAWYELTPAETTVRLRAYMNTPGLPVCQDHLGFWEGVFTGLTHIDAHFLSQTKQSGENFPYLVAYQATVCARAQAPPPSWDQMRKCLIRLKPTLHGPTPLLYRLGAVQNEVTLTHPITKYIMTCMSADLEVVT
T3 sequence (P27958 1658-1711 partner, looked up, stated change not applied): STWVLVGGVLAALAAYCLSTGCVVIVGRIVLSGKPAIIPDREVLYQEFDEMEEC
The experiment in a line: Recombinant HCV NS3/4A protease complex FRET peptide assay, BMS strain. Type of test: biochemical, HCV genotype 1a. The procedure, abridged:
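Recombinant NS3/4A (aa 1027–1711) carried a three-lysine tail, C1711G and C1454S, was expressed in E. coli BL21(DE3) and purified by Ni-NTA and Superdex-S200 to >90% purity. Inhibition of protease cleavage of a FRET peptide was measured in vitro.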

Test [3] deals with T4, porcine pancreatic elastase (PPE) (Sus scrofa, UniProt P00772).
T4 construct: porcine pancreatic elastase (PPE); from tissue; host or cells: porcine pancreas (from the enzyme's name only)
T4 sequence (P00772 27-266): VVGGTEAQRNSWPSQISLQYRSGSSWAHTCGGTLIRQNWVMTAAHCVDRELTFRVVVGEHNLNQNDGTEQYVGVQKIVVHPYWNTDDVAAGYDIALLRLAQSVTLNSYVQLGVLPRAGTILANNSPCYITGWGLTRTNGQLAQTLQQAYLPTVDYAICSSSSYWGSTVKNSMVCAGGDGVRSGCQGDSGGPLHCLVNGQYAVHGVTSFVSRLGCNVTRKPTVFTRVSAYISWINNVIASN
As to the kind of experiment: Specificity assay, porcine pancreatic elastase. The format is biochemical. To be noted: 2 hr enzyme-inhibitor pre-incubation. The protocol: as §1, §2
(§5) The final conditions and protocol for the serine protease assays were: • 50 mM Tris(hydroxymethyl)aminomethane hydrochloride (Tris-HCl) pH8, • 0.5M Sodium Sulfate (Na2SO4), 50 mM NaCl, 0.1 mM EDTA, 3% DMSO, • 0.01% Tween-20 with: 133 μM succ-AAA-pNA and 20 nM HS or 8 nM PPE; 100 μM succ-AAPF-pNA and 250 pM Chymotrypsin.
as §3, §4

Test [4] relates to human pancreatic chymotrypsin. As to the kind of experiment: Specificity assay, human pancreatic chymotrypsin. The format is biochemical. To be noted: 2 hr enzyme-inhibitor pre-incubation. On the procedure: as §1, §2, §5, §3, §4

T2 sequence (P27958 1027-1657 C1454S): as the sequence (P27958 1027-1657 C1454S) above
T2 sequence (P27958 1658-1711 partner, looked up, stated change not applied): as the sequence (P27958 1658-1711 partner, looked up, stated change not applied) above

In the case of `C=CC1C[C@]1(NC(=O)[C@@H]1C[C@@H](Oc2cc(-c3ccccc3)nc3cc(OC)ccc23)CN1C(=O)[C@@H](NC(=O)OC(C)(C)C)C(C)(C)C)C(=O)NS(=O)(=O)c1cccs1` (stereo in doubt) [Compound 1, (1-{4-(7-Methoxy-2-phenylquinolin-4-yloxy)-2-[1-(thiophene-2-sulfonylaminocarbonyl)-2-vinyl-cyclopropylcarbamoyl]-pyrrolidine-1-carbonyl}-2,2-dimethylpropyl)carbamic acid tert-butyl ester], the pIC50 is below 4.30 at human liver cathepsin B; 8.66 in test [1]; 8.10 in test [2] (BMS strain, read-out: IC50 against the NS3/4A BMS strain in the enzyme assay); above 7.00 in test [2] (NS3/4A BMS Strain, activity range, read-out: IC50 a, b, c (Activity Table)); below 4.30 in test [3]; below 4.30 in test [4].
